Entries after “also recorded” stand apart in the source; their conditions may differ.
System: Tlx3 positive layer 5 IT neurons
Test: Widefield calcium imaging of dorsal cortex in Tlx3-Cre x Ai148 mice (GCaMP6 in layer 5 IT neurons), before and after drug injection
Type: in vivo
Conditions: for long-range activity correlations (drug induced difference, normalized to naïve): region pairs above 0.9 of the bregma-lambda distance; for Pearson's correlation of activity between cortical regions (all region pairs): single injection, after vs naïve
Source text: All animal procedures were approved by and carried out in accordance with guidelines of the Veterinary Department of the Canton Basel-Stadt, Switzerland. The mice used in this study were kept on a C57BL/6 background and were of the following genotype: 6 C57/Bl6 (Charles River Laboratories), 4 Emx1-Cre mice (Gorski et al., 2002), 4 Cux2-CreERT2 (Franco et al., 2012), 7 Scnn1a-Cre (Madisen et al., 2010), 15 Tlx3-Cre(PL56) (Gerfen et al., 2013), 3 Ntsr1-Cre (Gong et al., 2007), 2 PV-Cre (Hippenmeyer et al., 2005), 6 VIP-Cre (Taniguchi et al., 2011), 5 Sst-Cre (Taniguchi et al., 2011) were used for widefield calcium imaging. Ai148 ((Daigle et al., 2018), Jackson Laboratories, stock #030328) mice were used as breeders to drive GCaMP6f in Cre positive neurons. 7 C57BL/6 were used for experiments controlling for hemodynamic responses. To induce expression of Cre in the Cux2-CreERT2 line, mice were kept for at least 1 week on Tamoxifen containing food (Envigo, 400 mg Tamoxifen per kg of food) as their only food source. Mice were group housed in a vivarium (light/dark cycle: 12/12 hours). Experimental mice used were of both sexes.
For all surgical procedures, mice were anesthetized using a mixture of Fentanyl (0.05 mg/kg; Actavis), Midazolam (5.0 mg/kg; Dormicum, Roche) and Medetomidine (0.5 mg/kg; Domitor, Orion). In a subset of mice (6 C57/Bl6, 4 Emx1-Cre, 4 Sst-Cre mice) we injected an AAV coated with the PHP.eb capsid (Chan et al., 2017) retroorbitally ([…] each eye of at least 10^13 GC/ml) to drive expression pan-neuronally or cell type specificly of GCaMP6 under either the Ef1α or hSyn promoter. For hemodynamic response control experiments, the inventors used an AAV PHP.eb Ef1α-GFP to pan-neuronally transfect GFP. To improve optical access to the cortex, they implanted crystal skull cranial windows (Kim et al., 2016). Prior to removing the skull plate overlying dorsal cortex, they zeroed bregma with a digital readout attached to the stereotax for later use as a landmark. Superglue (Pattex) was used to close the craniotomy. […] A custom-machined titanium head bar was attached to the skull using dental cement (Paladur, Heraeus). An epifluorescence overview image was taken to mark reference points on the dorsal cortical surface. Anesthesia was antagonized by an intraperitoneal injection of a mixture of Flumazenil (0.5 mg/kg; Anexate, Roche) and Atipamezole (2.5 mg/kg; Antisedan, Orion Pharma), analgesia was achieved by injecting Buprenorphine (0.1 mg/kg; Reckitt Benckiser Healthcare (UK) Ltd.) and Metacam (5 mg/kg; Boehringer Ingelheim), and mice were subsequently returned to their home cage. Imaging commenced not before 1 week after headbar implantation and not before at least 3 weeks had passed in the cases in which AAVs had been used to transfect neurons. Clozapine (Sigma), Aripiprazole (Otsuka Pharmaceutical), Haloperidol (Janssen) and Amphetamine (Hänseler) were intraperitoneally injected at […] body weight, respectively.
For all experiments we used a virtual reality setup as previously described (Leinweber et al., 2014). Mice were head-fixed and free to run on a spherical, air supported Styrofoam ball. Rotation of the ball was coupled to movement in a virtual reality environment. A virtual corridor was projected (Samsung SP-F10M) onto a toroidal screen positioned in front of the mice covering approximately 240 degrees horizontally and 100 degrees vertically of the field of view. […]

Row | SMILES | long-range activity correlations (drug induced difference, normalized to naïve) | short-range activity correlations (drug induced difference, normalized to naïve) (region pairs below 0.9 of the bregma-lambda distance) | Pearson's correlation of activity between cortical regions (all region pairs)
1 | O=C1CCc2ccc(OCCCCN3CCN(c4cccc(Cl)c4Cl)CC3)cc2N1 [Aripiprazole] | significantly reduced | significantly reduced | mimicked the decorrelation of dorsal cortex activity observed with Clozapine; also recorded: decorrelation of the activity patterns of Tlx3 positive layer 5 IT neurons was preserved
2 | O=C(CCCN1CCC(O)(c2ccc(Cl)cc2)CC1)c1ccc(F)cc1 [Haloperidol] | reduced long-range activity correlations | – | mimicked the decorrelation of dorsal cortex activity observed with Clozapine; also recorded: decorrelation of the activity patterns of Tlx3 positive layer 5 IT neurons was preserved
3 | CC(N)Cc1ccccc1 (stereo not drawn) [Amphetamine] | – | – | did not affect activity correlations; also recorded: absent

Reference: US20250099033A1, “HIGH THROUGHPUT SCREENING METHOD FOR THE IDENTIFICATION OF PS[…]” (FRIEDRICH MIESCHER INSTITUTE FOR BIOMEDICAL RESEARCH, priority 2022, published 2025)
